Data: the NIST ThermoML archive (doi:10.1016/j.jct.2016.05.014)
“And” between values parts separate entries of the source, which are not always exact repeats. Identical values can stand only once. Numbers after ± are expanded uncertainties.

How the values were obtained:
[1] = molar heat capacity at constant pressure; conditions: 101.33 kPa, Crystal, Small sample (50 mg) DSC
[2] = Crystal

c1ccc2ccccc2c1 [naphthalene]
molar heat capacity at constant pressure ([1]; 283.15 K): 158.4 ± 3.9 J/K/mol | molar heat capacity at constant pressure ([1]; 288.15 K): 161.6 ± 4 J/K/mol | molar heat capacity at constant pressure ([1]; 293.15 K): 164.8 ± 4.1 J/K/mol | molar heat capacity at constant pressure ([1]; 298.15 K): 168 ± 4.2 J/K/mol | molar heat capacity at constant pressure ([1]; 303.15 K): 171.2 ± 4.2 J/K/mol | molar heat capacity at constant pressure ([1]; 308.15 K): 174.5 ± 4.3 J/K/mol | molar heat capacity at constant pressure ([1]; 313.15 K): 177.8 ± 4.4 J/K/mol | molar heat capacity at constant pressure ([1]; 318.15 K): 181.1 ± 4.5 J/K/mol | molar heat capacity at constant pressure ([1]; 323.15 K): 184.5 ± 4.6 J/K/mol | molar heat capacity at constant pressure ([1]; 328.15 K): 187.9 ± 4.7 J/K/mol | molar heat capacity at constant pressure ([1]; 333.15 K): 191.3 ± 4.7 J/K/mol

CCCCC(C#N)(Cn1cncn1)c1ccc(Cl)cc1 (centres undefined)
molar heat capacity at constant pressure ([1]; 283.15 K): 343.21 ± 9.5 J/K/mol and 340.09 ± 9.4 J/K/mol | molar heat capacity at constant pressure ([1]; 288.15 K): 349.62 ± 9.7 J/K/mol and 349.73 ± 9.7 J/K/mol | molar heat capacity at constant pressure ([1]; 293.15 K): 357.56 ± 9.9 J/K/mol and 356.25 ± 9.9 J/K/mol | molar heat capacity at constant pressure ([1]; 298.15 K): 364.3 ± 10 J/K/mol and 362.78 ± 10 J/K/mol | molar heat capacity at constant pressure ([1]; 303.15 K): 370.21 ± 10 J/K/mol and 369.3 ± 10 J/K/mol | molar heat capacity at constant pressure ([1]; 308.15 K): 375.66 ± 10 J/K/mol and 375.82 ± 10 J/K/mol | molar heat capacity at constant pressure ([1]; 313.15 K): 381.03 ± 11 J/K/mol and 382.35 ± 11 J/K/mol | molar heat capacity at constant pressure ([1]; 318.15 K): 386.69 ± 11 J/K/mol and 388.87 ± 11 J/K/mol | molar heat capacity at constant pressure ([1]; 323.15 K): 393.03 ± 11 J/K/mol and 395.39 ± 11 J/K/mol | molar heat capacity at constant pressure ([1]; 328.15 K): 400.42 ± 11 J/K/mol and 401.92 ± 11 J/K/mol | molar heat capacity at constant pressure ([1]; 333.15 K): 408.44 ± 11 J/K/mol and 409.23 ± 11 J/K/mol | mass density ([2]; 296 K, 101.33 kPa, X-ray diffraction): 1238 ± 6 kg/m3 | Normal melting temperature ([2]; visual observation): 70.30 ± 0.58 °C
